Holding throughout (assay): drug sensitivity score (DSS) from 5-dose viability curve (DSS (area-based score, 0 = no response)); higher = more sensitive (stronger viability inhibition); extreme values may be limits of the assay
Assay [1] deals with MDCK wild-type + doxycycline. As to conditions: doxycycline: 10 ng/mL; 72 h. The gist of the method:
(§1)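 Parental MDCK cells and MDCK cells with a doxycycline-inducible transgene were both grown with doxycycline at 10 ng/mL in the medium before plating, then dispensed at 2000 cells/well into 384-well plates pre-spotted with an oncology library of 528 drugs at five doses (1-10,000 nM). After 72 h at 37 °C, CellTiter-Glo luminescence was recorded and scaled on each plate between vehicle and positive controls. This scaled signal served as the viability readout, and drug sensitivity scores were derived from dose-response curve fits in the Breeze pipeline.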

Assay [2] deals with MDCK p60AmotL2-inducible + doxycycline (p60AmotL2 expressing). As to conditions: doxycycline: 10 ng/mL; 72 h. The essentials:
as §1

Assay [3] deals with MDCK wild-type - doxycycline. As to conditions: doxycycline: none; 72 h. The gist of the method: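 For 72 h at 37 °C, parental MDCK cells (no doxycycline, 2000 cells/well) were incubated on 384-well plates pre-spotted with 528 oncology drugs at five doses from 1 to 10,000 nM. CellTiter-Glo luminescence served as the viability readout, scaled per plate between vehicle and positive controls. The Breeze pipeline then fitted dose-response curves to yield drug sensitivity scores.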

In the case of `Cn1cc(-c2cnn3c(N)c(Br)c([C@@H]4CCCNC4)nc23)cn1` [MK-8776], the drug sensitivity score in assay [1], in assay [2] and in assay [3] was 0 in each case.
Regarding `Cc1cnc(-c2ccccc2C(C)C)nc1NCc1ccc(-n2ccnn2)cc1` [ML323], the drug sensitivity score in assay [1] was 0; in assay [2] it was 1.4; in assay [3], 0.
Turning to `O=C(CCNC(=O)c1ccc(OC(F)(F)F)cc1)N[C@@H]1CCCc2ccccc21` [ML390], the drug sensitivity score is 14.5 in assay [1], 18.3 in assay [2] and 13.8 in assay [3].
Turning to `O=C(Nc1cccc(NC(=O)c2cccc(O)c2O)c1)c1cccc(O)c1O` [MST-312], the drug sensitivity score in assay [1] is 5.9; in assay [2], 9.1; in assay [3] it was 7.2.
`CNC(=O)[C@@H](NC(=O)[C@H](CC(C)C)[C@H](O)C(=O)NO)C(C)(C)C` [Marimastat]: the drug sensitivity score in assay [1] is 0.1; in assay [2], 3.5; in assay [3] it was 0.
For `Cc1ccc(NC(=O)c2ccc(CN3CCN(C)CC3)cc2)cc1Nc1nc(-c2cccnc2)cs1` [Masitinib] the same measures were 8.2, 5.3 and 5.7.
Consider `CC(=O)O[C@]1(C(C)=O)CC[C@H]2[C@@H]3C=C(C)C4=CC(=O)CC[C@]4(C)[C@H]3CC[C@@]21C` [Megestrol acetate], for which the drug sensitivity score in assay [1], in assay [2] and in assay [3] was 0 each time.
Turning to `CCN(CC)CCCC(C)Nc1c2ccc(Cl)cc2nc2ccc(OC)cc12` (centres undefined) [Mepacrine], the values for the drug sensitivity score in assay [1], in assay [2] and in assay [3] were 16.2, 15.2 and 10.5, respectively.
For `S=c1[nH]cnc2nc[nH]c12` [Mercaptopurine], in that order: 1.8, 1.6 and 2.1.
On to `Cc1ccc(C(=O)Nc2ccc(Oc3cc4cnn(C)c4cc3-c3cn[nH]c3)c(F)c2)c(=O)n1-c1ccc(F)cc1` [Merestinib], for which the drug sensitivity score in assay [1] worked out at 0; in assay [2], 0; in assay [3] it was 0.9.
With `CN(C)C(=N)NC(=N)N` [Metformin], the drug sensitivity score in assay [1], in assay [2] and in assay [3] was 0 throughout.
In the case of `CN(Cc1cnc2nc(N)nc(N)c2n1)c1ccc(C(=O)N[C@@H](CCC(=O)O)C(=O)O)cc1` [Methotrexate], the figures for the drug sensitivity score in assay [1], in assay [2] and in assay [3] were 25.8, 22.5 and 27, respectively.
Take `C[C@H]1C[C@@H]2[C@H]([C@@H](O)C[C@@]3(C)[C@H]2CC[C@]3(O)C(=O)CO)[C@@]2(C)C=CC(=O)C=C12` [Methylprednisolone]: the drug sensitivity score in assay [1], in assay [2] and in assay [3] was 0 in each case.
As to `CO[C@@H]1[C@H](N(C)C(=O)c2ccccc2)C[C@H]2O[C@]1(C)n1c3ccccc3c3c4c(c5c6ccccc6n2c5c31)C(=O)NC4` [Midostaurin], the values for the drug sensitivity score in assay [1], in assay [2] and in assay [3] were 11.5, 13.9 and 13.2, respectively.
Take `CNC(=O)c1nn(C)c2c1C(C)(C)Cc1cnc(Nc3ccc(N4CCN(C)CC4)cc3)nc1-2` [Milciclib]: the drug sensitivity score stood at 14.5 in assay [1], 13.2 in assay [2] and 12.4 in assay [3].
On to `CCCCCCCCCCCCCCCCOP(=O)([O-])OCC[N+](C)(C)C` [Miltefosine], for which the drug sensitivity score came out at 5.2 in assay [1], 5.3 in assay [2] and 4.9 in assay [3].
With `CO[C@@]12[C@H](COC(N)=O)C3=C(C(=O)C(C)=C(N)C3=O)N1C[C@@H]1N[C@@H]12` [Mitomycin C], the values for the drug sensitivity score in assay [1], in assay [2] and in assay [3] were 0, 0 and 1.2, respectively.
As to `Clc1ccc(C(c2ccccc2Cl)C(Cl)Cl)cc1` (centres undefined) [Mitotane], the drug sensitivity score in assay [1], in assay [2] and in assay [3] was 0 throughout.
Regarding `O=C1c2c(O)ccc(O)c2C(=O)c2c(NCCNCCO)ccc(NCCNCCO)c21` [Mitoxantrone], the results for the drug sensitivity score in assay [1], in assay [2] and in assay [3] were 8.9, 15.5 and 7.1, respectively.
As for `CCS(=O)(=O)Nc1ccc(Oc2ccc(F)cc2F)c(-c2cn(C)c(=O)c3[nH]ccc23)c1` [Mivebresib], the drug sensitivity score in assay [1] was determined as 23.8; in assay [2], 29.9; in assay [3], 18.7.
For `Nc1ccccc1NC(=O)c1ccc(CNc2nccc(-c3cccnc3)n2)cc1` [Mocetinostat] the same measures were 8.4, 6.2 and 8.1.
Take `CCNC(=O)C[C@@H]1N=C(c2ccc(Cl)cc2)c2cc(OC)ccc2-n2c(C)nnc21` [Molibresib]: the drug sensitivity score was 2.9 in assay [1], 9.5 in assay [2] and 0.9 in assay [3].
For `N#CCNC(=O)c1ccc(-c2ccnc(Nc3ccc(N4CCOCC4)cc3)n2)cc1` [Momelotinib], in that order: 2.7, 3.3 and 3.7.
Turning to `CC1(C)CNc2cc(NC(=O)c3cccnc3NCc3ccncc3)ccc21` [Motesanib], the drug sensitivity score in assay [1], in assay [2] and in assay [3] was 0 in each case.
Turning to `CCCN(CCC)C(=O)C1=Cc2ccc(-c3ccc(C(=O)N4CCCC4)cc3)cc2N=C(N)C1` [Motolimod], the drug sensitivity score was determined as 0.8 in assay [1], 2.5 in assay [2] and 0 in assay [3].
Consider `FC(F)(F)c1ccc(/C=C/c2nc(COc3ccc(CCCCn4ccnn4)cc3)co2)cc1` [Mubritinib], for which the drug sensitivity score in assay [1], in assay [2] and in assay [3] was 0 in each case.
As to `Cc1cc(OCc2nnc(SC3CCCC3)n2-c2cccnc2)ccc1-c1ccc(S(C)(=O)=O)cc1` [NMS-873], the drug sensitivity score in assay [1] amounted to 13.5; in assay [2], 14.7; in assay [3], 12.8.
On to `COc1ccc(-c2ccc3ncc4c(c3c2)n(-c2ccc(N3CCNCC3)c(C(F)(F)F)c2)c(=O)n4C)cn1` [NVP-BGT226], for which the drug sensitivity score in assay [1] was found to be 13.5; in assay [2] it was 18.9; in assay [3], 11.8.
For `Cc1ccc(C(=O)Nc2cccc(C(F)(F)F)c2)cc1Nc1nc(-c2cccnc2)nc2c1cnn2C` [NVP-BHG712] the same measures were 0, 0 and 4.8.
As to `COc1cc2c(cc1OC(C)C)[C@H](c1ccc(Cl)cc1)N(c1ccc(N(C)C[C@H]3CC[C@H](N4CCN(C)C(=O)C4)CC3)cc1)C(=O)C2` [NVP-CGM097], the results for the drug sensitivity score in assay [1], in assay [2] and in assay [3] were 5.3, 7.6 and 5.4, respectively.
For `CN[C@@H](C)C(=O)N[C@H](C(=O)N1CCC[C@H]1c1nc(C(=O)c2ccc(F)cc2)cs1)C1CCCCC1` [NVP-LCL161], the drug sensitivity score was 3.1 in assay [1], 0.5 in assay [2] and 0 in assay [3].
Take `Cn1c(Nc2ccc(C(F)(F)F)cc2)nc2cc(Oc3ccnc(-c4ncc(C(F)(F)F)[nH]4)c3)ccc21` [NVP-RAF265]: the drug sensitivity score in assay [1], in assay [2] and in assay [3] was 0 each time.
For the compound `CC(=O)c1cc2c(o1)C(=O)c1ccccc1C2=O` [Napabucasin], the drug sensitivity score in assay [1] was found to be 18.5; in assay [2], 18.1; in assay [3], 18.3.
In the case of `CC1(C)CCC(c2ccc(Cl)cc2)=C(CN2CCN(c3ccc(C(=O)NS(=O)(=O)c4ccc(N[C@H](CCN5CCOCC5)CSc5ccccc5)c(S(=O)(=O)C(F)(F)F)c4)cc3)CC2)C1` [Navitoclax], the drug sensitivity score in assay [1] came out at 0.9; in assay [2] it was 0; in assay [3], 0.8.
For `CN1C(=O)N[C@H](Cc2c[nH]c3c(Cl)cccc23)C1=O` [Necrostatin 2] the same measures were 0, 0 and 0.
For `O=c1ncn2nc(Sc3ccc(F)cc3F)ccc2c1-c1c(Cl)cccc1Cl` [Neflamapimod] the same measures were 0, 0 and 0.
`COc1nc(N)nc2c1ncn2[C@@H]1O[C@H](CO)[C@@H](O)[C@@H]1O` [Nelarabine]: the drug sensitivity score in assay [1], in assay [2] and in assay [3] was 0 throughout.
For `CCOc1cc2ncc(C#N)c(Nc3ccc(OCc4ccccn4)c(Cl)c3)c2cc1NC(=O)/C=C/CN(C)C` [Neratinib], the figures for the drug sensitivity score in assay [1], in assay [2] and in assay [3] were 7.5, 16.8 and 5.1, respectively.

These data come from the supplement of paper PMC11003180.
